Assay results published in article PMC5870190, “A three-in-one-bullet for oesophageal cancer: replication fork collapse, spindle attachment failure and enhanced radiosensitivity generated by a ruthenium(II) metallo-intercalator” (Chemical Science, 2017).

What was measured:
OE33 cells = assay: Clonogenic survival assay with IR, OE33; assay type: cell-based, human; settings: Ru1 2 μM or Cis 500 nM for 24 h before IR
Procedure: Clonogenic survival assay. OE21, OE33 or FLO1 cells were treated with 2 µM Ru1 for 24 h before irradiation with 0-8 Gy using a 137Cs γ-irradiator (IBL637, CIS Bio Int.; dose rate = 0.809 Gy min−1). 1 h after irradiation, cells were detached using Trypsin and re-seeded in 6 well plates at a density of 300 – 20,000 cells/well in triplicate in an incrementally greater number of cells with increasing IR dose to ensure adequate colony formation. Cells were incubated for 7–14 days after re-seeding to allow colony formation before being fixed with 10% methanol, 10% acetic acid and stained with 0.4% methylene blue. OE33 cells required an additional formaldehyde fixation (4% in PBS, 5 mins) step before the addition of methylene blue solution or colony detachment occurred. Colonies containing 50 cells or greater were counted using a Gelcount instrument and accompanying software (Oxford Optronix). Plating efficiencies were determined for each treatment condition and normalised to an untreated control to provide the surviving fraction (S. F.). S.F. versus radiation dose curves were plotted in GraphPad Prism and fit using a second order polynomial function (R2 values > 0.99). Dose modifying factors (DMF) at a SF=0.1 were calculated using the equation: Dose modifying factor (DMF) = IR dose to give S.F. 0.1/IR dose plus compound to give S.F.0.1. […]

OE21 cells [1] = assay: Quantification of aberrant mitoses (CLSM); assay type: cell-based, human; settings: OE21, IC50 concentration, 24 h
Procedure: Microscopy and immunofluorescence. Cells were seeded on ibidi 35 mm µ-dishes (Thistle Scientific), allowed to adhere for 24 h and treated as stated in the main text. Cell media was removed, cells washed with PBS and fixed with formaldehyde (4%, 10 mins). Cells were permeablised with Triton (0.5% in PBS, 5 mins) and washed with PBS. Samples were blocked with BSA (3% in PBS-T) for 1 h before incubation with primary antibody (either anti-α-tubulin or anti-γ H2AX, 1/500 dilution) in BSA (3% in PBS-T) for 1 h. Samples were washed 3x in PBS-T and incubated with Alexa Fluor-conjugated secondary antibodies (3% in PBS-T, 1 h, 1/250 dilution). After further washing (3x5 min PBS-T) samples were co-stained with DAPI (5 ng/ml, 2 min), fresh PBS added and visualised by confocal microscopy. Samples were visualised using a Zeiss LSM 780 or LSM 710 inverted confocal microscope and EC Plan-Neofluar 40x/1.30 Oil objectives. […]
(§1) For the determination of mutation induction, from the untreated and each treated condition, 2x10^5 cells were plated in 10 x 100 mm dishes in selective media (regular media

OE21 cells [2] = assay: Trypan Blue exclusion assay; assay type: cell-based, human; settings: OE21, Ru1 21 μM
Procedure: Trypan Blue exclusion assay. OE21 cells were seeded in 6 well plates at 40,000 cells/well and allowed to adhere for 24 h.
Cell cultures were treated as stated, media containing detached/dead cells were removed and retained, and adherent collected by Trypsin and centrifugation. Adherent and detached cells for each sample were combined, concentrated via centrifugation and re-suspended in 0.5 ml PBS containing 0.04% Trypan Blue solution. Trypan Blue negative and Trypan Blue positive cells were counted by haemocytometer. A minimum of 200 cells were counted for each sample. […]
as §1

[3] = test system: hSAEC1-KT normal human small airway epithelial cells; assay: MTT assay, hSAEC1-KT cells; assay type: cell-based
Procedure: MTT assay. OE21, FLO-1 or hSAEC1-KT cells were seeded in 96 well plates at 20,000 cells/well (for 24 h treatment) or 10,000 cells/well (for 72 h treatment) and allowed to adhere for 24 h before treatment. OE33 cells were seeded in 48 well plates at 40,000 cells/well (24 h treatment) or 20,000 cells/well (72 h treatment). Cancer cell lines were treated with chemicals dissolved in RPMI media for consistency. After incubation, 0.5 mg/ml MTT (thiazolyl blue tetrazolium bromide) dissolved in serum-free medium was added for 60 minutes and the formazan product eluted using acidified isopropanol.
The absorbance at 540 nm was quantified by plate reader (reference wavelength 650 nm). The metabolic activity of the cell population was determined as a percentage of a negative (solvent) control. […]
as §1

[Ru(phen)2(tpphz)]^2+ [Ru1]
S.F. (OE33 cells; OE33, IR 0 Gy): 0.956 | S.F. (OE33 cells; OE33, IR 2 Gy): 0.447 | S.F. (OE33 cells; OE33, IR 4 Gy): 0.083 | S.F. (OE33 cells; OE33, IR 6 Gy): 0.014 | S.F. (OE33 cells; OE33, IR 8 Gy): 0.003 | mitotic aberrations, share of total cell population (OE21 cells [1]): ~8% | necrotic cell death (Trypan blue staining) (OE21 cells [2]): ~20% | IC50 ([3]; 24 h constant exposure): 78.5 ± 1.3 µM | IC50 ([3]; 72 h constant exposure): 22 ± 2 µM
